Source: the supplement of paper PMC10307832

Key:
Assay in all cases: relative viability (nuclei count vs DMSO), 5 days (fraction); higher = more cells survive
NCI-H1355 = tested on: NCI-H1355
Procedure, shortened: (§1)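 Relative viability divides the nuclei count in treated wells by that in vehicle wells. Lung cancer cell lines were seeded in 1536-well plates, dosed by pin tool the next day, and fixed and stained after 5 days in one step with final 0.05% Triton X-100, 1% formaldehyde and 1 ug/ml Hoechst. Dosing was a single drug or a fixed anchor-drug dose plus five library-drug doses (not always all listed) in √10 steps, and values are medians of duplicate plates imaged at 4×.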

NCI-H1792 = tested on: NCI-H1792
Procedure, shortened: as §1

NCI-H1563 = tested on: NCI-H1563
Procedure, shortened: as §1

SK-MES-1 = tested on: SK-MES-1
Procedure, shortened: as §1

RERF-LC-KJ = tested on: RERF-LC-KJ
Procedure, shortened: as §1

NCI-H1915 = tested on: NCI-H1915
Procedure, shortened: as §1

SW 900 = tested on: SW 900
Procedure, shortened: as §1

NCI-H727 = tested on: NCI-H727
Procedure, shortened: as §1

NCI-H520 = tested on: NCI-H520
Procedure, shortened: as §1

NCI-H661 = tested on: NCI-H661
Procedure, shortened: as §1

NCI-H650 = tested on: NCI-H650
Procedure, shortened: as §1

NCI-H522 = tested on: NCI-H522
Procedure, shortened: as §1

LXF-289 = tested on: LXF-289
Procedure, shortened: as §1

NCI-H1755 = tested on: NCI-H1755
Procedure, shortened: as §1

NCI-H322M = tested on: NCI-H322M
Procedure, shortened: as §1

NCI-H2347 = tested on: NCI-H2347
Procedure, shortened: as §1

NCI-H460 = tested on: NCI-H460
Procedure, shortened: as §1

NCI-H441 = tested on: NCI-H441
Procedure, shortened: as §1

NCI-H596 = tested on: NCI-H596
Procedure, shortened: as §1

NCI-H1651 = tested on: NCI-H1651
Procedure, shortened: as §1

PC-14 = tested on: PC-14
Procedure, shortened: as §1

NCI-H2170 = tested on: NCI-H2170
Procedure, shortened: as §1

NCI-H3122 = tested on: NCI-H3122
Procedure, shortened: as §1

LCLC-103H = tested on: LCLC-103H
Procedure, shortened: as §1

Compound `COc1cc(N2CCC(C(N)=O)CC2)ccc1Nc1nc(N)c(Cl)c(Nc2ccccc2S(=O)(=O)C(C)C)n1` [HG-5-88-01] + Cc1nc(Nc2ncc(C(=O)Nc3c(C)cccc3Cl)s2)cc(N2CCN(CCO)CC2)n1 [Dasatinib] (partner 0.075 µM) has a relative viability (NCI-H1355; first compound 0.04 µM) of 0.675, a relative viability (NCI-H1355; first compound 0.1265 µM) of 0.77 and a relative viability (NCI-H1355; first compound 0.4 µM) of 0.597. For the same compound, the relative viability (NCI-H1355; first compound 1.265 µM) was 0.574, the relative viability (NCI-H1355; first compound 4 µM) was 0.388 and the relative viability (NCI-H1792; first compound 0.04 µM) was 0.959. The relative viability (NCI-H1792; first compound 0.1265 µM) was 0.693, the relative viability (NCI-H1792; first compound 0.4 µM) was 0.78 and the relative viability (NCI-H1792; first compound 4 µM) was 0.525. The relative viability (NCI-H1563; first compound 0.04 µM) was 0.453, the relative viability (NCI-H1563; first compound 0.1265 µM) was 0.445 and the relative viability (NCI-H1563; first compound 0.4 µM) was 0.436. The relative viability (NCI-H1563; first compound 1.265 µM) was 0.367, the relative viability (NCI-H1563; first compound 4 µM) was 0.381 and the relative viability (SK-MES-1; first compound 0.04 µM) was 0.335. For the same compound, the relative viability (SK-MES-1; first compound 0.1265 µM) was 0.304, the relative viability (SK-MES-1; first compound 0.4 µM) was 0.124 and the relative viability (SK-MES-1; first compound 1.265 µM) was 0.112. It also gave a relative viability (SK-MES-1; first compound 4 µM) of 0.155, a relative viability (RERF-LC-KJ; first compound 0.04 µM) of 0.804 and a relative viability (RERF-LC-KJ; first compound 0.1265 µM) of 0.81. For the same compound, the relative viability (RERF-LC-KJ; first compound 0.4 µM) was 0.671, the relative viability (RERF-LC-KJ; first compound 1.265 µM) was 0.465 and the relative viability (RERF-LC-KJ; first compound 4 µM) was 0.41. For the same compound, the relative viability (NCI-H1915; first compound 0.04 µM) was 0.347, the relative viability (NCI-H1915; first compound 0.1265 µM) was 0.316 and the relative viability (NCI-H1915; first compound 0.4 µM) was 0.295. It also gave a relative viability (NCI-H1915; first compound 1.265 µM) of 0.314, a relative viability (NCI-H1915; first compound 4 µM) of 0.239 and a relative viability (SW 900; first compound 0.04 µM) of 0.848. It also gave a relative viability (SW 900; first compound 0.1265 µM) of 0.548, a relative viability (SW 900; first compound 0.4 µM) of 0.391 and a relative viability (SW 900; first compound 1.265 µM) of 0.578. The relative viability (SW 900; first compound 4 µM) was 0.17, the relative viability (NCI-H727; first compound 0.04 µM) was 0.335 and the relative viability (NCI-H727; first compound 0.1265 µM) was 0.334. For the same compound, the relative viability (NCI-H727; first compound 0.4 µM) was 0.282, the relative viability (NCI-H727; first compound 1.265 µM) was 0.173 and the relative viability (NCI-H727; first compound 4 µM) was 0.217. The relative viability (NCI-H520; first compound 0.04 µM) was 0.201, the relative viability (NCI-H520; first compound 0.1265 µM) was 0.176 and the relative viability (NCI-H520; first compound 0.4 µM) was 0.184. For the same compound, the relative viability (NCI-H520; first compound 1.265 µM) was 0.162, the relative viability (NCI-H520; first compound 4 µM) was 0.2 and the relative viability (NCI-H661; first compound 0.04 µM) was 0.939. For the same compound, the relative viability (NCI-H661; first compound 0.1265 µM) was 0.941, the relative viability (NCI-H661; first compound 0.4 µM) was 0.791 and the relative viability (NCI-H661; first compound 1.265 µM) was 0.514. It also gave a relative viability (NCI-H661; first compound 4 µM) of 0.664, a relative viability (NCI-H650; first compound 0.04 µM) of 0.441 and a relative viability (NCI-H650; first compound 0.1265 µM) of 0.46. It also gave a relative viability (NCI-H650; first compound 0.4 µM) of 0.378, a relative viability (NCI-H650; first compound 1.265 µM) of 0.391 and a relative viability (NCI-H650; first compound 4 µM) of 0.304. It also gave a relative viability (NCI-H522; first compound 0.04 µM) of 1.02, a relative viability (NCI-H522; first compound 0.1265 µM) of 0.897 and a relative viability (NCI-H522; first compound 0.4 µM) of 0.813. For the same compound, the relative viability (NCI-H522; first compound 1.265 µM) was 0.781, the relative viability (NCI-H522; first compound 4 µM) was 0.849 and the relative viability (LXF-289; first compound 0.04 µM) was 0.252. The relative viability (LXF-289; first compound 0.1265 µM) was 0.198, the relative viability (LXF-289; first compound 0.4 µM) was 0.116 and the relative viability (LXF-289; first compound 1.265 µM) was 0.132. For the same compound, the relative viability (LXF-289; first compound 4 µM) was 0.11, the relative viability (NCI-H1755; first compound 0.04 µM) was 0.459 and the relative viability (NCI-H1755; first compound 0.1265 µM) was 0.514. For the same compound, the relative viability (NCI-H1755; first compound 0.4 µM) was 0.369, the relative viability (NCI-H1755; first compound 1.265 µM) was 0.29 and the relative viability (NCI-H1755; first compound 4 µM) was 0.15. The relative viability (NCI-H322M; first compound 0.04 µM) was 0.247, the relative viability (NCI-H322M; first compound 0.1265 µM) was 0.194 and the relative viability (NCI-H322M; first compound 0.4 µM) was 0.189. The relative viability (NCI-H322M; first compound 4 µM) was 0.216, the relative viability (NCI-H2347; first compound 0.04 µM) was 0.267 and the relative viability (NCI-H2347; first compound 0.1265 µM) was 0.319. It also gave a relative viability (NCI-H2347; first compound 0.4 µM) of 0.318, a relative viability (NCI-H2347; first compound 1.265 µM) of 0.303 and a relative viability (NCI-H2347; first compound 4 µM) of 0.295. It also gave a relative viability (NCI-H460; first compound 0.04 µM) of 0.481, a relative viability (NCI-H460; first compound 0.1265 µM) of 0.56 and a relative viability (NCI-H460; first compound 0.4 µM) of 0.316. For the same compound, the relative viability (NCI-H460; first compound 1.265 µM) was 0.255, the relative viability (NCI-H460; first compound 4 µM) was 0.0831 and the relative viability (NCI-H441; first compound 0.04 µM) was 0.601. It also gave a relative viability (NCI-H441; first compound 0.1265 µM) of 0.625, a relative viability (NCI-H441; first compound 0.4 µM) of 0.31 and a relative viability (NCI-H441; first compound 1.265 µM) of 0.314. It also gave a relative viability (NCI-H441; first compound 4 µM) of 0.231, a relative viability (NCI-H596; first compound 0.04 µM) of 0.6 and a relative viability (NCI-H596; first compound 0.1265 µM) of 0.494. It also gave a relative viability (NCI-H596; first compound 0.4 µM) of 0.544, a relative viability (NCI-H596; first compound 1.265 µM) of 0.416 and a relative viability (NCI-H596; first compound 4 µM) of 0.288. For the same compound, the relative viability (NCI-H1651; first compound 0.04 µM) was 0.368, the relative viability (NCI-H1651; first compound 0.1265 µM) was 0.619 and the relative viability (NCI-H1651; first compound 0.4 µM) was 0.375. For the same compound, the relative viability (NCI-H1651; first compound 1.265 µM) was 0.249, the relative viability (NCI-H1651; first compound 4 µM) was 0.246 and the relative viability (PC-14; first compound 0.04 µM) was 0.234. It also gave a relative viability (PC-14; first compound 0.1265 µM) of 0.185, a relative viability (PC-14; first compound 0.4 µM) of 0.0685 and a relative viability (PC-14; first compound 1.265 µM) of 0.0374. The relative viability (PC-14; first compound 4 µM) was 0.0307, the relative viability (NCI-H2170; first compound 0.04 µM) was 0.502 and the relative viability (NCI-H2170; first compound 0.1265 µM) was 0.441. It also gave a relative viability (NCI-H2170; first compound 0.4 µM) of 0.498, a relative viability (NCI-H2170; first compound 1.265 µM) of 0.165 and a relative viability (NCI-H2170; first compound 4 µM) of 0.269. The relative viability (NCI-H3122; first compound 0.04 µM) was 0.542, the relative viability (NCI-H3122; first compound 0.1265 µM) was 0.209 and the relative viability (NCI-H3122; first compound 0.4 µM) was 0.149. For the same compound, the relative viability (NCI-H3122; first compound 1.265 µM) was 0.161, the relative viability (NCI-H3122; first compound 4 µM) was 0.109 and the relative viability (LCLC-103H; first compound 0.04 µM) was 0.522. The relative viability (LCLC-103H; first compound 0.1265 µM) was 0.464, the relative viability (LCLC-103H; first compound 0.4 µM) was 0.418 and the relative viability (LCLC-103H; first compound 1.265 µM) was 0.373. The relative viability (LCLC-103H; first compound 4 µM) was 0.341.
